These results are taken from article PMC6760193, “Characterization of artificially re-pigmented ARPE-19 retinal pigment epithelial cell model” (Scientific Reports, 2019).

In one series the test system is ARPE-19mel cells. Put plainly: Melanosomal drug uptake assay in re-pigmented ARPE-19mel cells (medium concentration vs non-pigmented ARPE-19, LC-MS/MS). In kind it is in vitro ADME, human. The settings on record: 4 µM drug, 20 hours; for Melanosomal drug uptake (%), average: serum-free medium; for Melanosomal drug uptake (fraction of administered compound in the melanosomes): ARPE-19mel cells, pigmentation stage not specified.

Details of series [1]: method as in PMID 29859954, PMID 28479360. The settings on record: descriptors originally obtained with ACDLabs Software, cited from earlier work; for logD7.4 (predicted): pH 7.4.
[2] abbreviates: 10 % stage of pigmentation (7 µg melanin/well).
Where [3] appears, read: 30 % stage of pigmentation (20 µg melanin/well).
Setting [4] is: 100 % stage of pigmentation (68 µg melanin/well).

Procedure for ARPE-19mel cells: Uptake of six different drugs (Table 1) was studied in non-pigmented ARPE-19 cells and pigmented ARPE-19mel cells. The melanosome administration was conducted as described above using three melanosome doses (corresponding to 7 µg, 20 µg and 68 µg of melanin). These melanosome doses correspond to 10, 30 and 100% levels of pigmentation. The highest external melanosome dose (68 µg) results in similar cellular pigmentation with the native pRPE (i.e. normalized as 100%).
Drug uptake study was initiated 4–5 days after melanosome feeding. The experiments were conducted in 2–6 replicate wells, separately for each compound. The cells were exposed to 4 µM of each drug for 20 hours in serum-free culture medium. Then, samples from the medium samples were collected and diluted 2:5 into acetonitrile (ACN) with 0.2% formic acid. The samples were centrifuged at 15 000 g for 5 min, and the supernatant was collected and diluted 1:10 into mixture of ACN-water (60:40). Finally, internal standards were added at final concentration of 100 nM. Different internal standards were used for each compound (Table 1). The melanin amounts in the wells were measured after the uptake experiment (see above).
Drugs were quantitated with liquid chromatography mass spectrometry (LC-MS) analyses that were carried out with Acquity i-class UPLC (Waters, Massachusetts, USA) coupled with Xevo TQ-S triple quadrupole mass spectrometry (Waters). […] Chromatographic separation for all six compounds was carried out using Waters HSS-T3 column (2.1 × 100 mm, 1.8 µm) and gradient run. The mobile phases were prepared as binary phases. Phase A was purified water with 0.1% of formic acid and phase B contained 100% lc-ms grade acetonitrile (Chromasolv^TM). […] Total run time was 9 minutes including column flush and stabilization to the initial state. […] Flow through needle system was used.
Electrospray ionization on positive mode was used in the analyses. […] Nitrogen was used as a desolvation gas (Aga, Helsinki, Finland) and argon as a collision gas (Aga). Capillary and cone voltages, collision energy and dwell time were tuned individually for each compound (Table 2). […] Minimum of eight calibration curve levels were used for quantification while quality control (QC) samples used to monitor precision and bias of the assay. Data were processed with MassLynx V4.1 software (Waters).
The melanosomal drug uptake was calculated using the Eq. 1 below:1 Melanosomaldruguptake(%)=(1−CmediumARPE−19mel/CmediumARPE−19)×100%

For `CCN(CC)CCCC(C)Nc1ccnc2cc(Cl)ccc12` (centres unmarked) [chloroquine], the “Melanosomal drug uptake (%), average” value in the series on ARPE-19mel cells (setting [2]) is listed as 80.3%; in the series on ARPE-19mel cells (setting [3]) it was 93.3%; in the series on ARPE-19mel cells (setting [4]), 96.7%. Further, in the series with ARPE-19mel cells, the “Melanosomal drug uptake (fraction of administered compound in the melanosomes)” value is on record as over 90%.

Turning to `O=C(O)Cc1ccccc1Nc1c(Cl)cccc1Cl` [diclofenac], the “Melanosomal drug uptake (%), average” value in the series with ARPE-19mel cells (setting [2]) turned out to be 0.8%; in the series with ARPE-19mel cells (setting [3]), 1.2%; in the series on ARPE-19mel cells (setting [4]) it was 3.7%. Also, in the series on ARPE-19mel cells, the “Melanosomal drug uptake (fraction of administered compound in the melanosomes)” value is under 5%. Further, the “logD7.4 (predicted)” value in series [1] was 1.4.

For the molecule `CN(Cc1cnc2nc(N)nc(N)c2n1)c1ccc(C(=O)N[C@@H](CCC(=O)O)C(=O)O)cc1` [methotrexate], the “Melanosomal drug uptake (%), average” value is 5.1% in the series on ARPE-19mel cells (setting [2]), 3.9% in the series with ARPE-19mel cells (setting [3]) and 3.5% in the series on ARPE-19mel cells (setting [4]). In addition, the “Melanosomal drug uptake (fraction of administered compound in the melanosomes)” value in the series with ARPE-19mel cells was under 5%. The “pKa, most acidic” value in series [1] is on record as 3.5. Further, the “logD7.4 (predicted)” value in series [1] is −5.1.

For the molecule `CC[C@@H]1C(=O)OC[C@@H]1Cc1cncn1C` [pilocarpine], the entries for the “Melanosomal drug uptake (%), average” value in the series on ARPE-19mel cells (setting [2]), with ARPE-19mel cells (setting [3]) and with ARPE-19mel cells (setting [4]) were 11.5%, 23.5% and 30.2%, respectively. Also, the “pKa, most basic” value in series [1] is 7.02. In addition, the “logD7.4 (predicted)” value in series [1] was −0.4.

Regarding `CC(C)NCC(O)COc1cccc2ccccc12` (centres unmarked) [propranolol], the entries for the “Melanosomal drug uptake (%), average” value in the series with ARPE-19mel cells (setting [2]), with ARPE-19mel cells (setting [3]) and in the series on ARPE-19mel cells (setting [4]) were 34.1%, 76.1% and 92.2%, respectively. Moreover, the “Melanosomal drug uptake (fraction of administered compound in the melanosomes)” value in the series on ARPE-19mel cells is reported as over 90%.

As to `CC(C)(C)NC[C@H](O)COc1nsnc1N1CCOCC1` [timolol], the “Melanosomal drug uptake (%), average” value in the series on ARPE-19mel cells (setting [2]) came to 17.6%; in the series on ARPE-19mel cells (setting [3]), 31.2%; in the series on ARPE-19mel cells (setting [4]), 48.2%. Further, in series [1], the “pKa, most basic” value is 9.4. Also, the “logD7.4 (predicted)” value in series [1] was −0.6.
